The target of data set [1] is Amyloid-beta precursor protein (Homo sapiens) (UniProt P05067). The data set is described as follows: Inhibition of self-induced Abeta(1 to 42) (unknown origin) aggregation at 25 uM after 24 hrs by Thioflavin T-based fluorometric assay.
Data set [2] is described as follows: Antioxidant activity assessed as Trolox equivalent per microM of compound after 15 mins by oxygen radical absorbance capacity fluorescein assay. The format is physicochemical. The following applies: 0.25 h.
The target of data set [3] is Acetylcholinesterase (Electrophorus electricus, UniProt O42275). The data set is described as follows: Inhibition of electric eel AChE using acetylthiocholine chloride as substrate after 15 mins by Ellman spectrophotometric method. In general terms: Ellman's reagent forms a yellow product with free thiols.
The nature of data set [4]: Selectivity index, ratio of IC50 for equine serum BChE to IC50 for electric eel AChE.
For data set [5], the target named is Cholinesterase (Equus caballus, UniProt P81908). The data set is described as follows: Inhibition of equine serum BChE using acetylthiocholine chloride as substrate after 15 mins by Ellman spectrophotometric method.
Data set [6] deals with Acetylcholinesterase (Homo sapiens, UniProt P22303). Put plainly: Inhibition of human erythrocyte AChE using acetylthiocholine chloride as substrate after 15 mins by Ellman spectrophotometric method.
The target of data set [7] is Acetylcholinesterase (Electrophorus electricus) (UniProt O42275). The data set is described as follows: Mixed-type inhibition of electric eel AChE using acetylthiocholine chloride as substrate after 15 mins by Lineweaver-Burk plot method.
Data set [8] has as its system PC-12. Put plainly: Protective activity against H2O2-induced rat PC12 cell injury assessed as cell viability incubated at 5 uM for 3 hrs before H2O2 addition measured after 5 hrs by MTT assay relative to untreated control. In kind it is functional. The following applies: read-out: Activity. In general terms: Tetrazolium assays rely on reduction of a dye to a coloured formazan, in cell work by metabolically active cells.

The nature of data set [9]: Permeability of the compound in DMSO-PBS/EtOH solution at 100 ug/ml by PAMPA. The format is ADME. The following applies: read-out: permeability.

Consider eleven compounds from ChEMBL document CHEMBL3400132, “Design, synthesis and evaluation of novel 5,6,7-trimethoxyflavone-6-chlorotacrine hybrids as potential multifunctional agents for the treatment of Alzheimer's disease” (Bioorg Med Chem Lett, 2015).

Molecules are shown by their SMILES. Activity calls are given as the source filed them. The rule behind the calls is not given here. Bounds are passed on as bounds.

Sequence of Cholinesterase (P81908 whole entry): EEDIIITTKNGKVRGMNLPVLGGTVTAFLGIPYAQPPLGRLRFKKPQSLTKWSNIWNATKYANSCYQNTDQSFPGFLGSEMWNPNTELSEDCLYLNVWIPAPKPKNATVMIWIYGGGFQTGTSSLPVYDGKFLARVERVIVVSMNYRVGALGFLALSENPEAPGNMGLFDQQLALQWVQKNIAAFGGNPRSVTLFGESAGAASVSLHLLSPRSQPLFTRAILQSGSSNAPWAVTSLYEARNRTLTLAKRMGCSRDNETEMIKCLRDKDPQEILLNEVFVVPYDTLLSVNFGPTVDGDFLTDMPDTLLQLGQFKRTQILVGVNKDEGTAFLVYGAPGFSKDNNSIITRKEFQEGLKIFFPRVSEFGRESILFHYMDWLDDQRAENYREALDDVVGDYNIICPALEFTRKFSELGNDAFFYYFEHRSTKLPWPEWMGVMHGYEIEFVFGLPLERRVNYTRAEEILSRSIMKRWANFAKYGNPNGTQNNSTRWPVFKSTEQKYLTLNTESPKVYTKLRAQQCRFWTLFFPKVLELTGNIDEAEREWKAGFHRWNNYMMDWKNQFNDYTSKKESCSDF
Sequence of Acetylcholinesterase (Homo sapiens, UniProt P22303) (P22303 whole entry): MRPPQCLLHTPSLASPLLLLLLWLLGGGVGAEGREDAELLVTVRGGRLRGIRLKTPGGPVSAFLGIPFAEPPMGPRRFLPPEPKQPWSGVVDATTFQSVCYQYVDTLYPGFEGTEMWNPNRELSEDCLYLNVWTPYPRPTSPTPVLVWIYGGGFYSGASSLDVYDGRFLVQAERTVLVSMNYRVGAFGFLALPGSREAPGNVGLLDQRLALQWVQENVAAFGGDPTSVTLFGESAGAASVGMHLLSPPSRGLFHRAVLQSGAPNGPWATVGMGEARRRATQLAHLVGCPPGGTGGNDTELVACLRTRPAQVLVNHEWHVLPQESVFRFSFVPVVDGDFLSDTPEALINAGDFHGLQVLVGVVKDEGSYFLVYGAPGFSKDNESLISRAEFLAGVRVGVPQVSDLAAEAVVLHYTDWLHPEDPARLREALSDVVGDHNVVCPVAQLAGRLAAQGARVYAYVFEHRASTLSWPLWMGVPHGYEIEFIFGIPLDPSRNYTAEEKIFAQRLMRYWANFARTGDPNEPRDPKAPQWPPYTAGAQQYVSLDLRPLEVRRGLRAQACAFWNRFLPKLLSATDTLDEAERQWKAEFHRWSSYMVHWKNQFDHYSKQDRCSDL
Sequence of Acetylcholinesterase (Electrophorus electricus, UniProt O42275) (O42275 whole entry): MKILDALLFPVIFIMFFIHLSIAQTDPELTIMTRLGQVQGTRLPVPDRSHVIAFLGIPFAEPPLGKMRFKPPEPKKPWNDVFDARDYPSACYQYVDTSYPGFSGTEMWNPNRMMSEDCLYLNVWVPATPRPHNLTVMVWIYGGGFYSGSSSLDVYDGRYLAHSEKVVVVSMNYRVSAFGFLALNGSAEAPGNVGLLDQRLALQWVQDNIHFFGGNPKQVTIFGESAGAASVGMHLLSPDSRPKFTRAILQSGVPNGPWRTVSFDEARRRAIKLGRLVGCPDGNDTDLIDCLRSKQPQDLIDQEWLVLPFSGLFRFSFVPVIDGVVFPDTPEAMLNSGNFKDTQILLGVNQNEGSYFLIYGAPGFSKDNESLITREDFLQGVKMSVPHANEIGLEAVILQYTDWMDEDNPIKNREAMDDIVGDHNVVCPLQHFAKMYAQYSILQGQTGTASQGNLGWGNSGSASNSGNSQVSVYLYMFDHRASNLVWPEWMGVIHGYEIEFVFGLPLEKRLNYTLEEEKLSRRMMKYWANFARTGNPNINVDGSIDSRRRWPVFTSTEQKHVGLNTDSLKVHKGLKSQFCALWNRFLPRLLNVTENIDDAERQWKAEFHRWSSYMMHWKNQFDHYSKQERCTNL
Sequence of Amyloid-beta precursor protein (Homo sapiens) (P05067 whole entry): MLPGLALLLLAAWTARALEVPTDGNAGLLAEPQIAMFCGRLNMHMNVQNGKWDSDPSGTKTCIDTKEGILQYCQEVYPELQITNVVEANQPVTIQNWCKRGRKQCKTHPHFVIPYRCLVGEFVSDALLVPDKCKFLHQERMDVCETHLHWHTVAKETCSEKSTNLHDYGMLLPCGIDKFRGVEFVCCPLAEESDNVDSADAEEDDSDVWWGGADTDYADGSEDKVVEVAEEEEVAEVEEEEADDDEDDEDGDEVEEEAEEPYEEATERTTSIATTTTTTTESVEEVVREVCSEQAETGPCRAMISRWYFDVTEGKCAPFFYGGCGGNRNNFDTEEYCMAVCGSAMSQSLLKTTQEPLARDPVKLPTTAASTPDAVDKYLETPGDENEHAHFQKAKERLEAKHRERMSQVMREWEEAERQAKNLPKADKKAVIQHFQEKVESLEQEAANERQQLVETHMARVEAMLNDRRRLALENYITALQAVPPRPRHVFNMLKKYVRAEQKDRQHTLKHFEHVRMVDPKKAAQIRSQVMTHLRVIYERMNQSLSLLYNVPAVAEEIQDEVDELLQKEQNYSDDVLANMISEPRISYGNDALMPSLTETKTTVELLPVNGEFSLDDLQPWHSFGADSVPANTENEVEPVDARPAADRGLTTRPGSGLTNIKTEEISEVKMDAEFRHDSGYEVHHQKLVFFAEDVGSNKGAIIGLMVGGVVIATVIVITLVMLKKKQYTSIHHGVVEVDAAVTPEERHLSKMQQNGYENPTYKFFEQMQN
Sequence of Acetylcholinesterase (Electrophorus electricus) (O42275 24-633 limits assumed): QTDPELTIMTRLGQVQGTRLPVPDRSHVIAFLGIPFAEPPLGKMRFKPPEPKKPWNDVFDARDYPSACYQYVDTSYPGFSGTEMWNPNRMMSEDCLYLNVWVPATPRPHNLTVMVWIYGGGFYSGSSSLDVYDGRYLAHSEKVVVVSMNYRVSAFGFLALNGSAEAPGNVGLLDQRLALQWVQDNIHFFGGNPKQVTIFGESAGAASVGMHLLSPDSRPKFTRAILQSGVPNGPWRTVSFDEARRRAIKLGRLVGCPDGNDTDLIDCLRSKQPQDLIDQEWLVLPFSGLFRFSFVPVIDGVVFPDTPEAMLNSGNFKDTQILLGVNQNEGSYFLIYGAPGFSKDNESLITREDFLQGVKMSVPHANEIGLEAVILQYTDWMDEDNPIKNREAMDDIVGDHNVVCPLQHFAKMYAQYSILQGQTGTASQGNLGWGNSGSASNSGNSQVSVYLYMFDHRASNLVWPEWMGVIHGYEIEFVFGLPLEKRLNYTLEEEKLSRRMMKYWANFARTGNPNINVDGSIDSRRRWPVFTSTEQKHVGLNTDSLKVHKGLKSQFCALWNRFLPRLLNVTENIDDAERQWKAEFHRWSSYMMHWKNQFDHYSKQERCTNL

Turning to `COc1cc2oc(-c3cccc(OCC(=O)NCCCCNc4c5c(nc6cc(Cl)ccc46)CCCC5)c3)cc(=O)c2c(OC)c1OC`, the inhibition in data set [1] was determined as 31.8%. The “fold change (Trolox equivalents (ORAC))” value in data set [2] is 0.55. Also, the IC50 turned out to be 68.2 nM in data set [3] and 1020 nM in data set [5]. In data set [4], the Ratio IC50 was determined as 15.

`COc1cc2oc(-c3cccc(OCC(=O)NCCCCCNc4c5c(nc6cc(Cl)ccc46)CCCC5)c3)cc(=O)c2c(OC)c1OC`: the inhibition in data set [1] amounted to 32.5%. Besides, the “fold change (Trolox equivalents (ORAC))” value in [2] is on record as 0.53. Also, the figures for the IC50 in data set [3], in data set [6] and in data set [5] were 20.9 nM, 17.3 nM and 291 nM, respectively. Further, the Ratio IC50 in [4] was determined as 12.7.

With `Nc1c2c(nc3cc(Cl)ccc13)CCCC2`, in data set [2], the “fold change (FC)” value amounted to 0.17. The same compound had a 50% inhibitory concentration (IC50) in data set [5] of 16.5 nM.

`COc1cc2oc(-c3cccc(OCC(=O)NCCCNc4c5c(nc6cc(Cl)ccc46)CCCC5)c3)cc(=O)c2c(OC)c1OC` yielded an inhibition in [1] of 30.6%. In data set [2], the “fold change (Trolox equivalents (ORAC))” value is reported as 0.57. The half-maximal inhibitory concentration (IC50) turned out to be 38.2 nM in [3] and 819 nM in data set [5]. Further, the Ratio IC50 in data set [4] is 15.4.

With `COc1cc2oc(-c3ccc(OCC(=O)NCCCCNc4c5c(nc6cc(Cl)ccc46)CCCC5)cc3)cc(=O)c2c(OC)c1OC`, the inhibition in data set [1] was 30.3%. In addition, the “fold change (Trolox equivalents (ORAC))” value in data set [2] is listed as 0.58. Besides, the half-inhibitory concentration (IC50) in data set [3] came out at 52.8 nM; in data set [5] it was 1240 nM. For the same compound, the Ratio IC50 in data set [4] turned out to be 23.5.

As to `COc1cc2oc(-c3ccc(O)cc3)cc(=O)c2c(OC)c1OC`, the inhibition in data set [1] was found to be 11.2%. Besides, the “fold change (Trolox equivalents (ORAC))” value in data set [2] was 5.7. The IC50 in data set [3] and in [5] was above 100000 nM throughout.

With `COc1cc2oc(-c3cccc(O)c3)cc(=O)c2c(OC)c1OC`, in [1], the inhibition was found to be 17.4%. Besides, the “fold change (Trolox equivalents (ORAC))” value in data set [2] is 3.6. Also, the 50% inhibitory concentration (IC50) in [3] and in data set [5] was above 100000 nM in each case.

In turn, `COc1cc2oc(-c3ccc(OCC(=O)NCCCCCCNc4c5c(nc6cc(Cl)ccc46)CCCC5)cc3)cc(=O)c2c(OC)c1OC` came in with an inhibition in [1] of 35.5%. The “fold change (Trolox equivalents (ORAC))” value in [2] is 0.52. Also, the IC50 in data set [3] stood at 41.3 nM; in data set [6] it was 21.6 nM; in data set [5] it was 321 nM. Further, the Ratio IC50 in [4] was 10.3.

Turning to `COc1cc2oc(-c3cccc(OCC(=O)NCCCCCCNc4c5c(nc6cc(Cl)ccc46)CCCC5)c3)cc(=O)c2c(OC)c1OC`, in [1], the inhibition was 34.3%. For the same compound, the “fold change (Trolox equivalents (ORAC))” value in data set [2] was 0.47. In addition, the IC50 in [3] amounted to 47.2 nM; in data set [6] it was 32.5 nM; in [5] it was 969 nM. Also, in data set [4], the Ratio IC50 stood at 20.5.

In turn, `COc1cc2oc(-c3ccc(OCC(=O)NCCCNc4c5c(nc6cc(Cl)ccc46)CCCC5)cc3)cc(=O)c2c(OC)c1OC` returned an inhibition in data set [1] of 25.6%. Besides, the “fold change (Trolox equivalents (ORAC))” value in data set [2] was 0.62. The concentration for half-maximal inhibition (IC50) was found to be 29.4 nM in data set [3] and 549 nM in data set [5]. For the same compound, the Ratio IC50 in [4] was determined as 13.9.

In turn, `COc1cc2oc(-c3ccc(OCC(=O)NCCCCCNc4c5c(nc6cc(Cl)ccc46)CCCC5)cc3)cc(=O)c2c(OC)c1OC` gave an inhibition in [1] of 33.8%. The inhibition entry in data set [7] was “Active”. Moreover, in data set [2], the “fold change (Trolox equivalents (ORAC))” value is on record as 0.55. Also, the IC50 came to 12.8 nM in [3], 6.9 nM in data set [6] and 463 nM in data set [5]. Besides, in [8], the viability at 5 µM came to 45.3%. The Ratio IC50 in [4] was 36.2. Also, the Papp at 100 ug/ml in [9] is 7.92 ×10⁻⁶ cm/s.

As a reminder, the inhibition is how much of the control response was suppressed. By IC50 is commonly meant the midpoint of a concentration-inhibition curve. Higher therefore signals weaker potency.
